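Briefly, cells in 96-well plates were exposed to five compound concentrations for 48 h, and endpoints were estimated by linear interpolation. GI50 marks 50% less growth.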 Activity calls are given as the source filed them. No stated cut-off is given here; in the data, active = GI50 up to about 1.1 µM and inactive = higher.
Tests used:
Assay in all cases: NCI-60 cell line screen, 48 h
U-251 = tested on: U-251
786-0 = tested on: 786-0
NCI-H23 = tested on: NCI-H23
HOP-62 = tested on: HOP-62
EKVX = tested on: EKVX
MOLT-4 = tested on: MOLT-4
CAKI-1 = tested on: CAKI-1
HOP-92 = tested on: HOP-92
OVCAR-5 = tested on: OVCAR-5
SNB-19 = tested on: SNB-19
Malme-3M = tested on: Malme-3M
LOX IMVI = tested on: LOX IMVI
SK-MEL-28 = tested on: SK-MEL-28
OVCAR-3 = tested on: OVCAR-3
UO-31 = tested on: UO-31
NCI-H522 = tested on: NCI-H522

Measured: GI50

CC1=C2C(=O)O[C@@H](c3ccoc3)[C@]2(C)CCC1 [FRAXINELLONE]
inactive: U-251 > 100 µM | 786-0 > 100 µM | NCI-H23 > 100 µM | HOP-62 > 100 µM | EKVX > 100 µM | MOLT-4 > 100 µM | CAKI-1 > 100 µM | HOP-92 23.1 µM | OVCAR-5 > 100 µM | SNB-19 > 100 µM | Malme-3M > 100 µM | LOX IMVI > 100 µM | SK-MEL-28 > 100 µM | OVCAR-3 > 100 µM | UO-31 > 100 µM | NCI-H522 > 100 µM

C=CCc1cc(OC)c2c(c1)C(O)CC(c1ccccc1)O2 (stereo unspecified)
inactive: U-251 > 100 µM | 786-0 > 100 µM | NCI-H23 > 100 µM | HOP-62 > 100 µM | EKVX > 100 µM | MOLT-4 27.9 µM | CAKI-1 62.7 µM | HOP-92 > 100 µM | OVCAR-5 78.5 µM | SNB-19 > 100 µM | Malme-3M > 100 µM | SK-MEL-28 > 100 µM | OVCAR-3 > 100 µM | UO-31 > 100 µM | NCI-H522 > 100 µM

Cc1cc(C)cc(NC(N)=S)c1
inactive: U-251 38.6 µM | 786-0 92.5 µM | NCI-H23 > 100 µM | HOP-62 > 100 µM | EKVX > 100 µM | MOLT-4 > 100 µM | CAKI-1 > 100 µM | HOP-92 > 100 µM | OVCAR-5 > 100 µM | SNB-19 > 100 µM | Malme-3M > 100 µM | LOX IMVI 29.1 µM | SK-MEL-28 > 100 µM | OVCAR-3 > 100 µM | UO-31 > 100 µM | NCI-H522 > 100 µM

COc1ccc(N2C(=O)C3c4[nH]c5ccccc5c4C4CCCCCCC4C3C2=O)cc1 (stereo unspecified)
inactive: U-251 4.06 µM | 786-0 3.13 µM | NCI-H23 13.1 µM | HOP-62 8.22 µM | EKVX 14 µM | MOLT-4 8 µM | CAKI-1 17 µM | HOP-92 13.8 µM | OVCAR-5 > 52.1 µM | SNB-19 10.2 µM | Malme-3M 16.6 µM | LOX IMVI 5 µM | SK-MEL-28 18.8 µM | OVCAR-3 5.93 µM | UO-31 17.4 µM | NCI-H522 13.9 µM

O=S(=O)(O)c1cc(O)c2c(O)c(/N=N/c3ccc(/C=C/c4ccc(/N=N/c5c(S(=O)(=O)O)cc6cc(S(=O)(=O)O)cc(O)c6c5O)cc4S(=O)(=O)O)c(S(=O)(=O)O)c3)c(S(=O)(=O)O)cc2c1
inactive: U-251 > 100 µM | 786-0 > 100 µM | NCI-H23 > 100 µM | HOP-62 > 100 µM | EKVX > 100 µM | MOLT-4 > 100 µM | CAKI-1 > 100 µM | HOP-92 95.7 µM | OVCAR-5 > 100 µM | SNB-19 > 100 µM | Malme-3M > 100 µM | LOX IMVI > 100 µM | SK-MEL-28 > 100 µM | OVCAR-3 > 100 µM | UO-31 > 100 µM | NCI-H522 > 100 µM

CC12c3ccccc3C(OC=O)(c3ccccc31)C1(C)c3ccccc3C2(OC=O)c2ccccc21
inactive: U-251 95.5 µM | 786-0 > 100 µM | NCI-H23 > 100 µM | HOP-62 48.5 µM | EKVX > 100 µM | MOLT-4 25.2 µM | CAKI-1 > 100 µM | HOP-92 > 100 µM | OVCAR-5 > 100 µM | SNB-19 > 100 µM | Malme-3M > 100 µM | LOX IMVI > 100 µM | SK-MEL-28 > 100 µM | OVCAR-3 > 100 µM | UO-31 > 100 µM | NCI-H522 > 100 µM

CC(C)(O)[C@@H]1CC[C@@]2(C)CCC[C@H](O)[C@H]2C1
inactive: U-251 > 100 µM | 786-0 > 100 µM | NCI-H23 > 100 µM | HOP-62 > 100 µM | MOLT-4 > 100 µM | CAKI-1 > 100 µM | HOP-92 > 100 µM | OVCAR-5 > 100 µM | SNB-19 > 100 µM | Malme-3M > 100 µM | LOX IMVI > 100 µM | SK-MEL-28 > 100 µM | OVCAR-3 > 100 µM | UO-31 > 100 µM | NCI-H522 > 100 µM

O=C(O)C1Cc2[nH]cnc2CN1 (stereo unspecified)
inactive: U-251 > 100 µM | 786-0 > 100 µM | NCI-H23 > 100 µM | EKVX > 100 µM | MOLT-4 > 100 µM | CAKI-1 > 100 µM | HOP-92 > 100 µM | OVCAR-5 > 100 µM | SNB-19 > 100 µM | Malme-3M > 100 µM | LOX IMVI > 100 µM | SK-MEL-28 > 100 µM | OVCAR-3 > 100 µM | UO-31 > 100 µM | NCI-H522 > 100 µM

CCOC(=O)C(Cc1ccc([N+](=O)[O-])cc1)NC(=O)CC1c2ccccc2-c2ccccc21 (stereo unspecified)
inactive: U-251 43.9 µM | 786-0 39.1 µM | NCI-H23 > 100 µM | HOP-62 35.2 µM | EKVX > 100 µM | MOLT-4 > 100 µM | HOP-92 23.7 µM | SNB-19 39.3 µM | Malme-3M 20.6 µM | LOX IMVI > 100 µM | SK-MEL-28 90.8 µM | OVCAR-3 > 100 µM | UO-31 > 100 µM | NCI-H522 > 100 µM

CC1CN(c2ccc(Cl)cc2)CC(C)(C)OC(=O)O1 (stereo unspecified)
inactive: U-251 > 100 µM | 786-0 > 100 µM | NCI-H23 > 100 µM | HOP-62 > 100 µM | EKVX > 100 µM | CAKI-1 > 100 µM | HOP-92 > 100 µM | OVCAR-5 > 100 µM | SNB-19 > 100 µM | Malme-3M > 100 µM | LOX IMVI > 100 µM | SK-MEL-28 > 100 µM | OVCAR-3 > 100 µM | UO-31 > 100 µM | NCI-H522 > 100 µM

CCOC(=O)CCC1(C(=O)OC)CCCC1=O (stereo unspecified)
inactive: U-251 > 100 µM | 786-0 > 100 µM | NCI-H23 > 100 µM | HOP-62 > 100 µM | EKVX > 100 µM | MOLT-4 > 100 µM | HOP-92 > 100 µM | OVCAR-5 > 100 µM | SNB-19 > 100 µM | Malme-3M > 100 µM | LOX IMVI > 100 µM | SK-MEL-28 > 100 µM | OVCAR-3 > 100 µM | UO-31 > 100 µM | NCI-H522 > 100 µM

OC1c2ccccc2C2(O)C1C(c1ccccc1)C(c1ccccc1)C2(O)c1ccccc1 (stereo unspecified)
inactive: U-251 8.17 µM | 786-0 11.5 µM | NCI-H23 13.3 µM | HOP-62 13.2 µM | EKVX 15.4 µM | MOLT-4 3.98 µM | CAKI-1 15.5 µM | HOP-92 7.33 µM | OVCAR-5 10.7 µM | SNB-19 23.5 µM | Malme-3M 12.7 µM | LOX IMVI 5.4 µM | SK-MEL-28 11.9 µM | OVCAR-3 4.88 µM | UO-31 13.4 µM | NCI-H522 6.34 µM

CC(C)(c1ccccc1)c1ccc(Oc2ccc(C#N)c(C#N)c2)cc1
inactive: U-251 99.8 µM | 786-0 > 10 µM | NCI-H23 25 µM | HOP-62 > 10 µM | EKVX 46.1 µM | MOLT-4 28.5 µM | CAKI-1 > 10 µM | HOP-92 10.3 µM | OVCAR-5 > 10 µM | SNB-19 34.6 µM | Malme-3M > 10 µM | LOX IMVI > 10 µM | SK-MEL-28 > 10 µM | OVCAR-3 > 10 µM | UO-31 4.48 µM | NCI-H522 9.06 µM
